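Assay format: 96-well plates, 48-hour exposure. GI50 = concentration required for 50% inhibition of growth. At the TGI there is no net growth.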
Columns and labels:
Assay in all cases: inhibition of tumour cell growth, NCI panel, 48 h
[1] = test system: SW-620 colon
[2] = test system: HCT-15 colon
[3] = test system: A498 renal
[4] = test system: T-47D breast
[5] = test system: MDA-MB-468 breast
[6] = test system: ACHN renal
[7] = test system: MCF7 breast
[8] = test system: IGROV1 ovarian
[9] = test system: MDA-MB-435
[10] = test system: DU-145 prostate
[11] = test system: SF-268 CNS
[12] = test system: EKVX NSCLC
[13] = test system: CAKI-1 renal
[14] = test system: NCI-H23 lung
[15] = test system: OVCAR-3 ovarian
[16] = test system: HOP-62 NSCLC
[17] = test system: HT29 colon
[18] = test system: SF-295 CNS
[19] = test system: A549 NSCLC
[20] = test system: MDA-MB-231 breast
[21] = test system: OVCAR-5 ovarian
[22] = test system: U251 CNS
[23] = test system: SK-MEL-2 melanoma
[24] = test system: HCT-116 colon
[25] = test system: 786-0 renal
[26] = test system: SNB-75 CNS
[27] = test system: M14 melanoma
[28] = test system: RXF 393 renal
[29] = test system: PC-3 prostate
[30] = test system: BT-549 breast
[31] = test system: RPMI-8226 leukemia
[32] = test system: MOLT-4 leukemia
[33] = test system: TK-10 renal
[34] = test system: SN12C renal
[35] = test system: HCC-2998 colon
[36] = test system: NCI/ADR-RES ovarian
[37] = test system: SK-MEL-5 melanoma
[38] = test system: UACC-62 melanoma
[39] = test system: SK-MEL-28 melanoma
[40] = test system: MALME-3M melanoma
[41] = test system: UO-31 renal
[42] = test system: OVCAR-8 ovarian
[43] = test system: COLO 205 colon
[44] = test system: HS 578T breast
[45] = test system: HOP-92 NSCLC
[46] = test system: SR leukemia
[47] = test system: SK-OV-3 ovarian
[48] = test system: NCI-H226 lung
[49] = test system: OVCAR-4 ovarian
[50] = test system: LOX IMVI melanoma
[51] = test system: K-562 leukemia
[52] = test system: UACC-257 melanoma
[53] = test system: HL-60(TB) leukemia
[54] = test system: SF-539 CNS
[55] = test system: NCI-H522 lung
[56] = test system: CCRF-CEM leukemia
[57] = test system: NCI-H460 lung
[58] = test system: KM12 colon
[59] = test system: SNB-19 CNS

SMILES: FC(F)(F)c1cc2c(Cl)ncnc2n1CCC1CCOCC1
- GI50 [1]: 11.9 µM
- TGI [1]: 28.5 µM
- GI50 [2]: 2.93 µM
- TGI [2]: 11 µM
- GI50 [3]: 16.2 µM
- TGI [3]: 29.9 µM
- GI50 [4]: 20.2 µM
- TGI [4]: 59.6 µM
- GI50 [5]: 1.66 µM
- TGI [5]: 3.44 µM
- GI50 [6]: 11.1 µM
- TGI [6]: 26 µM
- GI50 [7]: 11.5 µM
- TGI [7]: 36.4 µM
- GI50 [8]: 1.78 µM
- TGI [8]: 3.49 µM
- GI50 [9]: 5.01 µM
- TGI [9]: 18.3 µM
- GI50 [10]: 4.35 µM
- TGI [10]: 15.1 µM
- GI50 [11]: 2.45 µM
- TGI [11]: 7.28 µM
- GI50 [12]: 12.6 µM
- TGI [12]: 28.5 µM
- GI50 [13]: 14.6 µM
- TGI [13]: 30.2 µM
- GI50 [14]: 2.59 µM
- TGI [14]: 10 µM
- GI50 [15]: 12.2 µM
- TGI [15]: 27.4 µM
- GI50 [16]: 17 µM
- TGI [16]: 35.1 µM
- GI50 [17]: 13.9 µM
- TGI [17]: 44.2 µM
- GI50 [18]: 14 µM
- TGI [18]: 27.9 µM
- GI50 [19]: 22 µM
- TGI [19]: 56.9 µM
- GI50 [20]: 3.9 µM
- TGI [20]: 14 µM
- GI50 [21]: 24.1 µM
- TGI [21]: 81.9 µM
- GI50 [22]: 2.07 µM
- TGI [22]: 5.58 µM
- GI50 [23]: 13.2 µM
- TGI [23]: 28.2 µM
- GI50 [24]: 2.36 µM
- TGI [24]: 6.48 µM
- GI50 [25]: 16.1 µM
- TGI [25]: 32.4 µM
- GI50 [26]: 3.09 µM
- TGI [26]: 15.1 µM
- GI50 [27]: 3.76 µM
- TGI [27]: 16.2 µM
- GI50 [28]: 8.75 µM
- TGI [28]: 22.1 µM
- GI50 [29]: 2.97 µM
- TGI [29]: 11.3 µM
- GI50 [30]: 10.2 µM
- TGI [30]: 22.6 µM
- GI50 [31]: 14.6 µM
- TGI [31]: 41.4 µM
- GI50 [32]: 2.35 µM
- TGI [32]: 5.45 µM
- GI50 [33]: 17.4 µM
- TGI [33]: 36.7 µM
- GI50 [34]: 6.67 µM
- TGI [34]: 19.8 µM
- GI50 [35]: 1.63 µM
- TGI [35]: 3.03 µM
- GI50 [36]: 17 µM
- TGI [36]: 35.1 µM
- GI50 [37]: 2.79 µM
- TGI [37]: 9.23 µM
- GI50 [38]: 4.23 µM
- TGI [38]: 15.7 µM
- GI50 [39]: 2.6 µM
- TGI [39]: 6 µM
- GI50 [40]: 15.2 µM
- TGI [40]: 29.2 µM
- GI50 [41]: 1.79 µM
- TGI [41]: 3.79 µM
- GI50 [42]: 2.44 µM
- TGI [42]: 7.33 µM
- GI50 [43]: 16.4 µM
- TGI [43]: 37.2 µM
- GI50 [44]: 12.1 µM
- TGI [44]: 45.5 µM
- GI50 [45]: 13.9 µM
- TGI [45]: 32.3 µM
- GI50 [46]: 2.05 µM
- TGI [46]: 5.32 µM
- GI50 [47]: 17.3 µM
- TGI [47]: 33.3 µM
- GI50 [48]: 13.9 µM
- TGI [48]: 28.5 µM
- GI50 [49]: 18.5 µM
- TGI [49]: 50.1 µM
- GI50 [50]: 1.63 µM
- TGI [50]: 2.99 µM
- GI50 [51]: 2.84 µM
- TGI [51]: 8.66 µM
- GI50 [52]: 3.56 µM
- TGI [52]: 15.7 µM
- GI50 [53]: 2.21 µM
- TGI [53]: 5.07 µM
- GI50 [54]: 13.6 µM
- TGI [54]: 27.7 µM
- GI50 [55]: 1.68 µM
- TGI [55]: 3.68 µM
- GI50 [56]: 1.41 µM
- TGI [56]: 4.56 µM
- GI50 [57]: 2.42 µM
- TGI [57]: 5.66 µM
- GI50 [58]: 16.3 µM
- TGI [58]: 33.9 µM
- GI50 [59]: 5.21 µM
- TGI [59]: 18.1 µM
